# Test results: patent US20250346574A1, “PYRIDINYL SUBSTITUTED OXOISOINDOLINE COMPOUNDS FOR THE TREATMENT OF CANCER” (Bristol-Myers Squibb Company, priority 2021, published 2025)
# How the values were obtained:
# Helios [1] = molecular target: T1, Helios (Homo sapiens, UniProt Q96SW2+Q9UKS7); test: Helios Cellular Degradation Assay (Jurkat cells); format: cell-based; design: fluorescently labelled antibodies against Helios, Ikaros and Aiolos; endogenous in cells; host or cells: Jurkat cells; details: incubated 72 h, Helios-PE antibody staining, flow cytometry, read-out: Helios Jurkat IC50
# Experimental: Jurkat cells were plated at 80,000 cells/well in 40 μL RPMI+10% FBS in a 384 well cell culture plate prior to using acoustic dispensing technology for adding compound of interest. Cell cultures were incubated for 72 h at 37° C. and 5% CO2. In order to facilitate analysis, cell cultures were spun down at 200 rpm for 5 min and the supernatant was discarded. After shaking the plate to dislodge the cell pellet, cells were resuspended in 50 μL of Fixation Buffer (eBioScience FoxP3 buffer set 00-5523-00) for 60 min at room temperature. After centrifuging and discarding the supernatant, cells were permeabilized with 50 μL of Permeabilization buffer (eBioScience FoxP3 buffer set 00-5523-00) for 10 min at room temperature. Following permeabilization, cells were spun down and the supernatant was replaced with 20 μL fluorescently labelled antibodies against Helios, Ikaros and Aiolos or corresponding Isotype controls in 1× Permeabilization buffer (Ikaros-Alexa488 [Biolegend, Cat #368408, 1:50], Helios-PE [CST, Cat #29360, 1:50], Aiolos-Alexa647 [Biolegend, Cat #371106Biolegend, 1:25]) and staining reactions were incubated for 1 h at room temperature; protected from light. […] Stained cells were resuspended in 25 μL of flow cytometry staining buffer (PBS+0.2% BSA) and analyzed using an Intellicyt Ique Plus flow cytometer.
# Helios [2] = molecular target: T1, Helios; test: Helios Human T Regulatory Cells Degradation Assay; format: cell-based; design: fluorescently labelled antibodies against Helios in 1× Permeabilization buffer; endogenous in cells; host or cells: cryopreserved human T regulatory cells; details: cryopreserved human T regulatory cells, incubated 20 hours, Helios-APC antibody staining, flow cytometry; read-out: hTreg Helios DC50
# Procedure, shortened: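 Cryopreserved human Treg cells thawed in RPMI+10% FBS+20 ng/mL IL-2, rested 3 h, then incubated with compound 20 hours at 37° C, 5% CO2. Near-IR viability stain, permeabilization, flow cytometry read-out.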
# T1 sequence (Q9UKS7 whole entry): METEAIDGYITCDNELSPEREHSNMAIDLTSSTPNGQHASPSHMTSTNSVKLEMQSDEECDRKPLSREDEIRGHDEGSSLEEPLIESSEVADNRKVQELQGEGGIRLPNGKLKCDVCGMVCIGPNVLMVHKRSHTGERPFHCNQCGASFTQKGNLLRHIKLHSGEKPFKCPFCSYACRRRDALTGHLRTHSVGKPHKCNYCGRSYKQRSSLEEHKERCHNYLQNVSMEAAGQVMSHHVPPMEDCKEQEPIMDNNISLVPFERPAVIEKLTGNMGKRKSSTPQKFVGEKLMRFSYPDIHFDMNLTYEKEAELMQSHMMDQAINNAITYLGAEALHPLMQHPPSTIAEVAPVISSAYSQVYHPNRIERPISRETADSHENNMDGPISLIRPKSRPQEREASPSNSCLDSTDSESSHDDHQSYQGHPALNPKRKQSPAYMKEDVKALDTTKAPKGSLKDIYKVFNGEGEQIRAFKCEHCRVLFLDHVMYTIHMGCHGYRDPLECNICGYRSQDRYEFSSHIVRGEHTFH
# T1 sequence (Q96SW2 whole entry): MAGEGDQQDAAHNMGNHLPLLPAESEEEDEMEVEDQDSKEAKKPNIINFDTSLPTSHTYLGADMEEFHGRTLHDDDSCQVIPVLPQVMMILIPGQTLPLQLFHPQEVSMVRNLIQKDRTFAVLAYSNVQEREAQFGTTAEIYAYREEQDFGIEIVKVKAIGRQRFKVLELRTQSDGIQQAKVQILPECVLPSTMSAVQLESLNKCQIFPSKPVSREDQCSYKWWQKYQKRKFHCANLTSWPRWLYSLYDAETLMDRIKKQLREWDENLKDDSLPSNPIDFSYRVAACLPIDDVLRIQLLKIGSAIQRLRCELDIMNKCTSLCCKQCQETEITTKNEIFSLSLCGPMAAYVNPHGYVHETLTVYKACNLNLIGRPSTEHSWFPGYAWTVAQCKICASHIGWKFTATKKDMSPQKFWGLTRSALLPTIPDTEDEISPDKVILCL
# T1 sequence (Q16531 whole entry partner): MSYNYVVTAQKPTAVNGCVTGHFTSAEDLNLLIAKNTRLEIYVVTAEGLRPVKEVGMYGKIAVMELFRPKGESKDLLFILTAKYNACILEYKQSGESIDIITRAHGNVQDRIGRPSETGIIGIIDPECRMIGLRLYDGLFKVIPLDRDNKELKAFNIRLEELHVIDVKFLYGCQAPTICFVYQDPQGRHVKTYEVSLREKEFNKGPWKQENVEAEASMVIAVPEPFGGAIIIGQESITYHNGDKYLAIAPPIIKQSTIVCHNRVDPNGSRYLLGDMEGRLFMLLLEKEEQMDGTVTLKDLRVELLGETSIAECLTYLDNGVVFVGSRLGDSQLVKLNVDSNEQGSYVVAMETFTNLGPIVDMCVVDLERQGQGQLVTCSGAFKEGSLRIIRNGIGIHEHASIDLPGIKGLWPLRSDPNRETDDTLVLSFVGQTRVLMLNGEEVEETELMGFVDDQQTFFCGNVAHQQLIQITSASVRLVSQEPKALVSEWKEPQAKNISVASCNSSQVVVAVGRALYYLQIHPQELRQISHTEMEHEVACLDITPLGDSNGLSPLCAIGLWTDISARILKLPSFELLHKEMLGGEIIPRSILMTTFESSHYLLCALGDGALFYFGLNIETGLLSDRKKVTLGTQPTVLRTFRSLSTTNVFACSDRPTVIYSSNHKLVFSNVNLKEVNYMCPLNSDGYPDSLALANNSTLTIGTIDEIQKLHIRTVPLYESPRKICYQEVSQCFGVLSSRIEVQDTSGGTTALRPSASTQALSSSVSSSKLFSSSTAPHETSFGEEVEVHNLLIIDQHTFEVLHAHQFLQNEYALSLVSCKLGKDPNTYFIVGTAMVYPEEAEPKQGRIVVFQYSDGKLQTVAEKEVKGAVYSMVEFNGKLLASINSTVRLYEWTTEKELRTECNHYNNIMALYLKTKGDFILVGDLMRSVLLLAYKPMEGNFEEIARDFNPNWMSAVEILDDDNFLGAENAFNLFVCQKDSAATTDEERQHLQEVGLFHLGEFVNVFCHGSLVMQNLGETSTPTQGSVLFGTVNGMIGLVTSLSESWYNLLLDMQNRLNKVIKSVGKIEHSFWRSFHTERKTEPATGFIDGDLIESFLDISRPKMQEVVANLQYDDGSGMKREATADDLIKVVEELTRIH
SMILES,DC50 (Helios [1]),DC50 (Helios [2])
"NC(=O)C1CCN1Cc1ccnc(-c2ccc3c(c2)CN(C2CCC(=O)NC2=O)C3=O)c1 (stereo not shown) [Example 79, 1-((2-(2-(2,6-dioxopiperidin-3-yl)-1-oxoisoindolin-5-yl)pyridin-4-yl)methyl) azetidine-2-carboxamide]",736 nM,
"CN(C1CN(Cc2ccnc(-c3ccc4c(c3)CN([C@H]3CCC(=O)NC3=O)C4=O)c2)C1)S(=O)(=O)c1ccccc1 [Example 162, (S)—N-(1-((2-(2-(2,6-dioxopiperidin-3-yl)-1-oxoisoindolin-5-yl)pyridin-4-yl)methyl)azetidin-3-yl)-N-methylbenzenesulfonamide]",,28.7 nM
"CC(C)(O)[C@@H]1CCN(Cc2ccnc(-c3ccc4c(c3)CN(C3CCC(=O)NC3=O)C4=O)c2)C1 (stereo partly drawn) [Example 106, 3-(5-(4-(((R)-3-(2-hydroxypropan-2-yl)pyrrolidin-1-yl)methyl)pyridin-2-yl)-1-oxoisoindolin-2-yl)piperidine-2,6-dione]",,6 nM
"CC(O)C1CCN(Cc2ccnc(-c3ccc4c(c3)CN(C3CCC(=O)NC3=O)C4=O)c2F)CC1 (stereo not shown) [Example 113, 3-(5-(3-fluoro-4-((4-(1-hydroxyethyl)piperidin-1-yl)methyl)pyridin-2-yl)-1-oxoisoindolin-2-yl) piperidine-2,6-dione]",,13.9 nM
"CC(C)(O)C1CCN(Cc2ccnc(-c3ccc4c(c3F)CN(C3CCC(=O)NC3=O)C4=O)c2F)CC1 (stereo not shown) [Example 276, 3-(4-fluoro-5-(3-fluoro-4-((4-(2-hydroxypropan-2-yl)piperidin-1-yl)methyl)pyridin-2-yl)-1-oxoisoindolin-2-yl)piperidine-2,6-dione]",,28 nM
"Cc1ccc(C)c(C2(O)CCN(Cc3ccnc(-c4ccc5c(c4)CN(C4CCC(=O)NC4=O)C5=O)c3F)C2)c1 (stereo not shown) [Example 256, 3-(5-(4-((3-(2,5-dimethylphenyl)-3-hydroxypyrrolidin-1-yl)methyl)-3-fluoropyridin-2-yl)-1-oxoisoindolin-2-yl)piperidine-2,6-dione]",,1140 nM
"CC(C)(C)OC(=O)N1CC2CCCN(Cc3ccnc(-c4ccc5c(c4)CN(C4CCC(=O)NC4=O)C5=O)c3F)C2C1 (stereo not shown) [Example 204, tert-butyl 1-((2-(2-(2,6-dioxopiperidin-3-yl)-1-oxoisoindolin-5-yl)-3-fluoropyridin-4-yl)methyl) octahydro-6H-pyrrolo[3,4-b]pyridine-6-carboxylate]",,≥ 10000 nM
"Cc1cnc(-c2ccc3c(c2)CN(C2CCC(=O)NC2=O)C3=O)cc1CN1CC2(CCC2)C1 (stereo not shown) [Example 168, 3-(5-(4-((2-azaspiro[3.3]heptan-2-yl)methyl)-5-methylpyridin-2-yl)-1-oxoisoindolin-2-yl)piperidine-2,6-dione]",,3.7 nM
"CC1(O)CC2CN(Cc3ccnc(-c4ccc5c(c4)CN(C4CCC(=O)NC4=O)C5=O)c3)CC2C1 (stereo in doubt) [Example 147, (3S)-3-(5-(4-((5-hydroxy-5-methylhexahydrocyclopenta[c]pyrrol-2(1H)-yl)methyl)pyridin-2-yl)-1-oxoisoindolin-2-yl)piperidine-2,6-dione]",,11.5 nM
"CC(C)(C)OC(=O)N1CCC2(CN(Cc3ccnc(-c4ccc5c(c4)CN(C4CCC(=O)NC4=O)C5=O)c3F)C2)C1 (stereo not shown) [Example 207, tert-butyl 2-((2-(2-(2,6-dioxopiperidin-3-yl)-1-oxoisoindolin-5-yl)-3-fluoropyridin-4-yl)methyl)-2,6-diazaspiro[3.4]octane-6-carboxylate]",,≥ 10000 nM
"O=C1CC[C@H](N2Cc3cc(-c4cc(CN5C[C@H]6COC[C@H]6C5)ccn4)ccc3C2=O)C(=O)N1 [Example 152, (S)-3-(1-oxo-5-(4-(((3aR,6aS)-tetrahydro-1H-furo[3,4-c]pyrrol-5(3H)-yl)methyl)pyridin-2-yl)isoindolin-2-yl)piperidine-2,6-dione]",,18.8 nM
"C[C@](O)(c1ccccc1)[C@H]1CCCN1Cc1ccnc(-c2ccc3c(c2)CN(C2CCC(=O)NC2=O)C3=O)c1F (stereo partly drawn) [Example 218, 3-(5-(3-fluoro-4-(((R)-2-((S)-1-hydroxy-1-phenylethyl)pyrrolidin-1-yl)methyl)pyridin-2-yl)-1-oxoisoindolin-2-yl)piperidine-2,6-dione]",,4130 nM
C[C@@H]1c2c(ccc(-c3cc(CN4CC[C@H](F)C4)ccn3)c2F)C(=O)N1[C@H]1CCC(=O)NC1=O [Example 142],,706 nM
"COCC1CCCN(Cc2ccnc(-c3ccc4c(c3)CN(C3CCC(=O)NC3=O)C4=O)c2)C1 (stereo not shown) [Example 99, 3-(5-(4-((3-(methoxymethyl)piperidin-1-yl)methyl)pyridin-2-yl)-1-oxoisoindolin-2-yl)piperidine-2,6-dione]",,2 nM
"O=C1CCC(N2Cc3cc(-c4nccc(CN5Cc6cccc(F)c6C5)c4F)ccc3C2=O)C(=O)N1 (stereo not shown) [Example 186, 3-(5-(3-fluoro-4-((4-fluoroisoindolin-2-yl)methyl)pyridin-2-yl)-1-oxoisoindolin-2-yl)piperidine-2,6-dione]",,≥ 10000 nM
"O=C1CCC(N2Cc3cc(-c4nccc(CN5CCC(O)(c6ccccc6Cl)C5)c4F)ccc3C2=O)C(=O)N1 (stereo not shown) [Example 238, 3-(5-(4-((3-(2-chlorophenyl)-3-hydroxypyrrolidin-1-yl)methyl)-3-fluoropyridin-2-yl)-1-oxoisoindolin-2-yl)piperidine-2,6-dione]",,172 nM
"O=C1CC[C@H](N2Cc3cc(-c4nccc(CN5C[C@H]6COC[C@H]6C5)c4F)ccc3C2=O)C(=O)N1 [Example 151, (S)-3-(5-(3-fluoro-4-(((3aR,6aS)-tetrahydro-1H-furo[3,4-c]pyrrol-5(3H)-yl)methyl)pyridin-2-yl)-1-oxoisoindolin-2-yl)piperidine-2,6-dione]",,167 nM
"CN(CC1CN(Cc2ccnc(-c3ccc4c(c3)CN([C@H]3CCC(=O)NC3=O)C4=O)c2)C1)C(=O)c1ccccc1 [Example 164, (S)—N-((1-((2-(2-(2,6-dioxopiperidin-3-yl)-1-oxoisoindolin-5-yl)pyridin-4-yl)methyl)azetidin-3-yl)methyl)-N-methylbenzamide]",,15.9 nM
"O=C1CC[C@H](N2Cc3cc(-c4cc(CN5CC6CC(O)CC6C5)ccn4)ccc3C2=O)C(=O)N1 (stereo partly drawn) [Example 146, (3S)-3-(5-(4-((5-hydroxyhexahydrocyclopenta[c]pyrrol-2(1H)-yl)methyl)pyridin-2-yl)-1-oxoisoindolin-2-yl)piperidine-2,6-dione]",,3 nM
"O=C1CCC(N2Cc3cc(-c4nccc(CN5CCC(O)(c6ccc(F)cc6)C5)c4F)ccc3C2=O)C(=O)N1 (stereo not shown) [Example 234, 3-(5-(3-fluoro-4-((3-(4-fluorophenyl)-3-hydroxypyrrolidin-1-yl)methyl)pyridin-2-yl)-1-oxoisoindolin-2-yl)piperidine-2,6-dione]",,8410 nM
"CC(C)(O)[C@H]1CCN(Cc2ccnc(-c3ccc4c(c3)CN(C3CCC(=O)NC3=O)C4=O)c2F)C1 (stereo partly drawn) [Example 110, 3-(5-(3-fluoro-4-(((S)-3-(2-hydroxypropan-2-yl)pyrrolidin-1-yl)methyl)pyridin-2-yl)-1-oxoisoindolin-2-yl)piperidine-2,6-dione]",,9.8 nM
"COCC1N(Cc2ccnc(-c3ccc4c(c3)CN(C3CCC(=O)NC3=O)C4=O)c2)CC12CCC2 (stereo not shown) [Example 189, 3-(5-(4-((1-(methoxymethyl)-2-azaspiro[3.3]heptan-2-yl)methyl)pyridin-2-yl)-1-oxoisoindolin-2-yl)piperidine-2,6-dione]",,6.4 nM
